US20160135455A1, “SAFENED HERBICIDAL COMPOSITIONS COMPRISING PYRIDINE CARBOXYLIC ACIDS” (Dow AgroSciences LLC, priority 2014, published 2016)
Read-outs that look alike come from different tables or passages of the source.

Columns and labels:
Type in all cases: in vivo
[1] = tested on: velvetleaf (ABUTH, Abutilon theophrasti); assay: Postemergence greenhouse trial, herbicidal efficacy on velvetleaf; conditions: post-emergence, 528 h, applied alone at 35 g/ha, postemergence
Description: (§1) Seeds of the desired test plant species were planted in Sun Gro MetroMix® 306 planting mixture, which typically has a pH of 6.0 to 6.8 and an organic matter content of about 30 percent, in plastic pots with a surface area of 103.2 square centimeters (cm^2). When required to ensure good germination and healthy plants, a fungicide treatment and/or other chemical or physical treatment was applied. The plants were grown for 7-36 days (d) in a greenhouse with an approximate 14-hour (h) photoperiod which was maintained at about 23° C. during the day and 22° C. during the night. Nutrients and water were added on a regular basis and supplemental lighting was provided with overhead metal halide 1000-Watt lamps as necessary. The plants were employed for testing when they reached the second or third true leaf stage.
(§2) Weighed amounts of technical material were dissolved in a volume of 97:3 volume per volume (v/v) acetone/dimethyl sulfoxide (DMSO) to stock solutions. […] The concentrated stock solutions were diluted with an aqueous mixture of 1.5% v/v of Agri-dex crop oil concentrate to provide the appropriate application rates. Compound requirements are based upon a 12 milliliter (mL) application volume at a rate of 187 liters per hectare (L/ha). Stocks solutions of the safeners were prepared following the same procedure. Spray solutions of the safeners and experimental compound mixtures were prepared by adding the stock solutions to the appropriate amount of dilution solution to form a 12 mL spray solution in two-way combinations. Formulated compounds were applied to the plant material with an overhead Mandel track sprayer equipped with 8002E nozzles calibrated to deliver 187 L/ha over an application area of 0.503 square meters (m^2) at a spray height of 18 inches (43 centimeters (cm)) above average plant canopy. Control plants were sprayed in the same manner with the solvent blank. All herbicide application (component a) rates are in g ae/ha and all safener (component b) rates are in g ai/ha.
(§3) The treated plants and control plants were placed in a greenhouse as described above and watered by sub-irrigation to prevent wash-off of the test compounds. After 20-22 d, the condition of the test plants as compared with that of the control plants was determined visually and scored on a scale of 0 to 100 percent where 0 corresponds to no injury and 100 corresponds to complete kill. The condition of the test plants was compared with that of the control plants as determined visually and scored on a scale of 0 to 100 percent, where 0 corresponds to no injury and 100 corresponds to complete kill. Colby's equation was used to determine the herbicidal effects expected from the mixtures.

[2] = tested on: lambsquarters (CHEAL, Chenopodium album); assay: Postemergence greenhouse trial, herbicidal efficacy on lambsquarters; conditions: post-emergence, 528 h, applied alone at 35 g/ha, postemergence
Description: as §1, §2, §3

[3] = tested on: corn/maize (ZEAMX), Zea mays; assay: Postemergence greenhouse trial, crop injury (phytotoxicity/safening) on corn/maize; conditions: applied alone at 35 g/ha, rated after 20-22 d
Description: as §1
as §2, with “All herbicide application (component a) rates are in g ae/ha and all safener (component b) rates are in g ai/ha.” left out
as §3, with “Colby's equation was used to determine the herbicidal effects expected from the mixtures.” left out
The safener fenchlorazole-ethyl was combined with compound 1, compound 2, compound 5, and compound 6, and applied to corn/maize (ZEAMX) and the phytotoxicity of the herbicidal compositions was measured. In addition, the efficacy of the herbicidal composition on velvetleaf (ABUTH, Abutilon theophrasti), pigweed (AMARE, Amaranthus retroflexus), winter rape (BRSNW, Brassica napus), lambsquarters (CHEAL, Chenopodium album), thistle (CIRAR, Cirsium arvense), nutsedge (CYPES, Cyperus esculentus), poinsettia (EPHHL, Euphorbia heterophylla), wild buckwheat (POLCO, Polygonum convolvulus), giant foxtail (SETFA, Setaria faberi), sorghum (SORVU, Sorghum bicolor), and chickweed (STEME, Stellaria media) was evaluated.
The safener mefenpyr-diethyl was combined with compound 1, compound 2, and compound 5, and applied to corn/maize (ZEAMX) and the phytotoxicity of the herbicidal compositions were measured. […]

[4] = tested on: poinsettia (EPHHL, Euphorbia heterophylla); assay: Postemergence greenhouse trial, herbicidal efficacy on poinsettia; conditions: applied alone at 35 g/ha, postemergence; for pest or weed control at 35 g/ha: Euphorbia heterophylla, post-emergence, 528 h, rated after 20-22 d, read-out: % visual injury, Obs, EPHHL; for Obs, % visual injury, EPHHL: scored 20-22 d
Description: as §1, §2, §3

[5] = tested on: chickweed (STEME, Stellaria media); assay: Postemergence greenhouse trial, herbicidal efficacy on chickweed; conditions: post-emergence, 528 h, applied alone at 35 g/ha, postemergence
Description: as §1, §2, §3

[6] = tested on: pigweed (AMARE, Amaranthus retroflexus); assay: Postemergence greenhouse trial, herbicidal efficacy on pigweed; conditions: post-emergence, 528 h, applied alone at 35 g/ha, postemergence
Description: as §1, §2, §3

[7] = tested on: sorghum (SORVU, Sorghum bicolor); assay: Postemergence greenhouse trial, herbicidal efficacy on sorghum; conditions: applied alone at 35 g/ha
Description: as §1, §2, §3

[8] = tested on: wild pansy (VIOTR, Viola tricolor); assay: Postemergence greenhouse trial, herbicidal efficacy on wild pansy; conditions: applied alone at 35 g/ha, postemergence; for pest or weed control at 35 g/ha: Viola tricolor, post-emergence, 528 h, scored 20-22 d, read-out: Obs, % visual injury, VIOTR
Description: as §1, §2, §3

[9] = tested on: wheat (TRZAS), Triticum aestivum (spring wheat); assay: Postemergence greenhouse trial, crop injury (phytotoxicity/safening) on wheat; conditions: applied alone at 35 g/ha, scored 20-22 d, 0 = no injury, 100 = complete kill
Description: as §1, §2, §3
The safener fenchlorazole-ethyl was combined with compound 1, compound 2, compound 3, compound 4, compound 5, and compound 6, and applied to wheat (TRZAS), and the phytotoxicity of the herbicidal compositions was measured. In addition, the efficacy of the herbicidal composition on velvetleaf (ABUTH, Abutilon theophrasti), pigweed (AMARE, Amaranthus retroflexus), winter rape (BRSNW, Brassica napus), lambsquarters (CHEAL, Chenopodium album), thistle (CIRAR, Cirsium arvense), nutsedge (CYPES, Cyperus esculentus), poinsettia (EPHHL, Euphorbia heterophylla), wild buckwheat (POLCO, Polygonum convolvulus), giant foxtail (SETFA, Setaria faberi), sorghum (SORVU, Sorghum bicolor), chickweed (STEME, Stellaria media), and wild pansy (VIOTR, Viola tricolor) was evaluated.
The safener isoxadifen-ethyl was combined with compound 1, compound 2, compound 3, compound 4, compound 5, and compound 6, and applied to wheat (TRZAS), and the phytotoxicity of the herbicidal compositions was measured. […]

[10] = tested on: thistle (CIRAR, Cirsium arvense); assay: Postemergence greenhouse trial, herbicidal efficacy on thistle; conditions: post-emergence, 528 h, applied alone at 35 g/ha, postemergence
Description: as §1, §2, §3

[11] = tested on: winter rape (BRSNW, Brassica napus); assay: Postemergence greenhouse trial, herbicidal efficacy on winter rape; conditions: post-emergence, 528 h, applied alone at 35 g/ha, postemergence
Description: as §1, §2, §3

[12] = tested on: nutsedge (CYPES, Cyperus esculentus); assay: Postemergence greenhouse trial, herbicidal efficacy on nutsedge; conditions: applied alone at 35 g/ha
Description: as §1, §2, §3

[13] = tested on: wild buckwheat (POLCO, Polygonum convolvulus); assay: Postemergence greenhouse trial, herbicidal efficacy on wild buckwheat; conditions: Fallopia convolvulus, post-emergence, 528 h, applied alone at 35 g/ha, postemergence
Description: as §1, §2, §3

[14] = rated after 20-22 d, read-out: % visual injury, Obs, ABUTH
[15] = scored 20-22 d, read-out: Obs, % visual injury, ABUTH
[16] = rated after 20-22 d, read-out: % visual injury, Obs, CHEAL
[17] = scored 20-22 d, read-out: Obs, % visual injury, CHEAL
[18] = rated after 20-22 d, read-out: % visual injury, Obs, STEME
[19] = scored 20-22 d, read-out: Obs, % visual injury, STEME
[20] = rated after 20-22 d, read-out: % visual injury, Obs, AMARE
[21] = scored 20-22 d, read-out: Obs, % visual injury, AMARE
[22] = rated after 20-22 d, read-out: % visual injury, Obs, CIRAR
[23] = scored 20-22 d, read-out: Obs, % visual injury, CIRAR
[24] = rated after 20-22 d, read-out: % visual injury, Obs, BRSNW
[25] = scored 20-22 d, read-out: Obs, % visual injury, BRSNW
[26] = rated after 20-22 d, read-out: % visual injury, Obs, POLCO
[27] = scored 20-22 d, read-out: Obs, % visual injury, POLCO

COC(=O)c1nc(-c2ccc3ccn(C(=O)C(C)C)c3c2F)c(F)c(N)c1Cl [compound 4]
pest or weed control at 35 g/ha [1, 14]: 80%
pest or weed control at 35 g/ha [1, 15]: 80%
pest or weed control at 35 g/ha [2, 16]: 97%
pest or weed control at 35 g/ha [2, 17]: 97%
% visual injury, Obs, ZEAMX [3]: 35%
pest or weed control at 35 g/ha [4]: 100%
Obs, % visual injury, EPHHL [4]: 100%
pest or weed control at 35 g/ha [5, 18]: 93%
pest or weed control at 35 g/ha [5, 19]: 93%
pest or weed control at 35 g/ha [6, 20]: 100%
pest or weed control at 35 g/ha [6, 21]: 100%
% visual injury, Obs, SORVU ([7]; rated after 20-22 d): 80%
pest or weed control at 35 g/ha [8]: 60%
Obs, % visual injury, TRZAS [9]: 40%
pest or weed control at 35 g/ha [10, 22]: 75%
pest or weed control at 35 g/ha [10, 23]: 75%
plant injury at 35 g/ha [11, 24]: 97%
plant injury at 35 g/ha [11, 25]: 97%
% visual injury, Obs, CYPES ([12]; rated after 20-22 d): 0%
Obs, % visual injury, CYPES ([12]; scored 20-22 d): 0%
pest or weed control at 35 g/ha [13, 26]: 100%
pest or weed control at 35 g/ha [13, 27]: 100%

COC(=O)c1nc(-c2ccc3ccn(C(C)=O)c3c2F)c(F)c(N)c1Cl [compound 3]
pest or weed control at 35 g/ha [1, 15]: 50%
pest or weed control at 35 g/ha [2, 17]: 85%
Obs, % visual injury, EPHHL [4]: 100%
pest or weed control at 35 g/ha [6, 21]: 75%
Obs, % visual injury, TRZAS [9]: 30%
pest or weed control at 35 g/ha [10, 23]: 50%
plant injury at 35 g/ha [11, 25]: 30%
pest or weed control at 35 g/ha [13, 27]: 97%

Nc1c(F)c(-c2ccc3cc[nH]c3c2F)nc(C(=O)OCc2ccccc2)c1Cl [compound 2]
pest or weed control at 35 g/ha [1, 14]: 80%
pest or weed control at 35 g/ha [2, 16]: 97%
pest or weed control at 35 g/ha [2, 17]: 97%
pest or weed control at 35 g/ha [4]: 100%
pest or weed control at 35 g/ha [5, 18]: 100%
pest or weed control at 35 g/ha [5, 19]: 100%
pest or weed control at 35 g/ha [6, 20]: 100%
pest or weed control at 35 g/ha [6, 21]: 100%
Obs, % visual injury, SORVU ([7]; scored 20-22 d): 70%
pest or weed control at 35 g/ha [8]: 40%
% visual injury, Obs, VIOTR ([8]; rated after 20-22 d): 40%
pest or weed control at 35 g/ha [10, 22]: 70%
pest or weed control at 35 g/ha [10, 23]: 70%
plant injury at 35 g/ha [11, 24]: 100%
plant injury at 35 g/ha [11, 25]: 100%
pest or weed control at 35 g/ha [13, 26]: 100%
pest or weed control at 35 g/ha [13, 27]: 100%
